{
  "source": "patent EP0295827A2",
  "about": "“Use of 24,25-dihydroxy-cholecalciferol in mending bone fractures” (priority 1987, dated 1988)",
  "key": {"ICR mice": {"system": "ICR mice", "test": "30-day repeated oral administration: biochemical serum test", "assay_type": "in vivo", "set-up": "key: ↓: Decreased; →: No change; ↑: Increased", "conditions": "30 days, vs control group", "experimental": "24R,25-(OH)₂-D₃ was dissolved in 1% ethanol containing Panacate 810 to a predetermined concentration and the resultant solution was forcibly and orally administered to 5-week-old male or female ICR mice for 30 days in succession so that the does might become to 10 µg/kg/day, 100 µg/kg/day and 1,000 µg/kg/day, respectively. The thus treated mice were compared with a group of mice to which only the solvent had been administered in the following test items."}, "[1]": {"system": "rabbits suffering fracture", "test": "Fibula fracture model: X-ray inspection", "assay_type": "in vivo, Japanese white house rabbits", "conditions": "100 µg/kg oral, 3 weeks after the bones had been broken", "source_text": "The right fibulae of mature house rabbits (Japanese white house rabbits having a weight of about 3 kg) were broken at the central portions under anesthetic with a dental hand drill. Each of the house rabbits was kept in a separate cage and was allowed to take an ordinary solid food (CR-1, produced by Nippon Clare Corp.) and city water freely. 24R,25-(OH)₂-D₃ and 24S,25-(OH)₂-D₃ were dispersed in an aqueous 0.5% CMC solution and orally administered to the house rabbits through a rubber catheter. The experimental groups were as follows:\nThe respective medicines or aqueous 0.5% CMC solution was administered to these house rabbits for 3 weeks or 6 weeks after the bones had been broken. Thereafter, the house rabbits were killed and the fibulae were taken out for X-ray inspection and a strength test (bending test by DDV-VMF produced by Toyo Baldwin Co., Ltd.)."}},
  "data": [
    {"smiles": "C=C1CC[C@H](O)C/C1=C/C=C1\\CCC[C@]2(C)[C@@H]([C@H](C)CC[C@@H](O)C(C)(C)O)CC[C@@H]12", "note": "[24R,25-(OH)₂-D₃]", "values": [
      {"measurement": "A/G", "setting": "ICR mice; female, 10 µg/kg·day oral", "value": "→"},
      {"measurement": "ALP", "setting": "ICR mice; female, 10 µg/kg·day oral", "value": "→"},
      {"measurement": "Aℓb", "setting": "ICR mice; female, 10 µg/kg·day oral", "value": "→"},
      {"measurement": "BUN", "setting": "ICR mice; female, 10 µg/kg·day oral", "value": "→"},
      {"measurement": "Ca", "setting": "ICR mice; female, 10 µg/kg·day oral", "value": "→"},
      {"measurement": "GOT", "setting": "ICR mice; female, 10 µg/kg·day oral", "value": "→"},
      {"measurement": "GPT", "setting": "ICR mice; female, 10 µg/kg·day oral", "value": "→"},
      {"measurement": "Gℓu", "setting": "ICR mice; female, 10 µg/kg·day oral", "value": "→"},
      {"measurement": "I-P", "setting": "ICR mice; female, 10 µg/kg·day oral", "value": "→"},
      {"measurement": "LDH", "setting": "ICR mice; female, 10 µg/kg·day oral", "value": "→"},
      {"measurement": "T-Biℓ", "setting": "ICR mice; female, 10 µg/kg·day oral", "value": "→"},
      {"measurement": "T-CHO", "setting": "ICR mice; female, 10 µg/kg·day oral", "value": "→"},
      {"measurement": "T-P", "setting": "ICR mice; female, 10 µg/kg·day oral", "value": "→"},
      {"measurement": "A/G", "setting": "ICR mice; female, 100 µg/kg·day oral", "value": "→"},
      {"measurement": "ALP", "setting": "ICR mice; female, 100 µg/kg·day oral", "value": "→"},
      {"measurement": "Aℓb", "setting": "ICR mice; female, 100 µg/kg·day oral", "value": "→"},
      {"measurement": "BUN", "setting": "ICR mice; female, 100 µg/kg·day oral", "value": "→"},
      {"measurement": "Ca", "setting": "ICR mice; female, 100 µg/kg·day oral", "value": "→"},
      {"measurement": "GOT", "setting": "ICR mice; female, 100 µg/kg·day oral", "value": "→"},
      {"measurement": "GPT", "setting": "ICR mice; female, 100 µg/kg·day oral", "value": "→"},
      {"measurement": "Gℓu", "setting": "ICR mice; female, 100 µg/kg·day oral", "value": "→"},
      {"measurement": "I-P", "setting": "ICR mice; female, 100 µg/kg·day oral", "value": "→"},
      {"measurement": "LDH", "setting": "ICR mice; female, 100 µg/kg·day oral", "value": "→"},
      {"measurement": "T-Biℓ", "setting": "ICR mice; female, 100 µg/kg·day oral", "value": "→"},
      {"measurement": "T-CHO", "setting": "ICR mice; female, 100 µg/kg·day oral", "value": "→"},
      {"measurement": "T-P", "setting": "ICR mice; female, 100 µg/kg·day oral", "value": "→"},
      {"measurement": "A/G", "setting": "ICR mice; female, 1000 µg/kg·day oral", "value": "→"},
      {"measurement": "ALP", "setting": "ICR mice; female, 1000 µg/kg·day oral", "value": "→"},
      {"measurement": "Aℓb", "setting": "ICR mice; female, 1000 µg/kg·day oral", "value": "→"},
      {"measurement": "BUN", "setting": "ICR mice; female, 1000 µg/kg·day oral", "value": "→"},
      {"measurement": "Ca", "setting": "ICR mice; female, 1000 µg/kg·day oral", "value": "→"},
      {"measurement": "GOT", "setting": "ICR mice; female, 1000 µg/kg·day oral", "value": "→"},
      {"measurement": "GPT", "setting": "ICR mice; female, 1000 µg/kg·day oral", "value": "→"},
      {"measurement": "Gℓu", "setting": "ICR mice; female, 1000 µg/kg·day oral", "value": "→"},
      {"measurement": "I-P", "setting": "ICR mice; female, 1000 µg/kg·day oral", "value": "→"},
      {"measurement": "LDH", "setting": "ICR mice; female, 1000 µg/kg·day oral", "value": "→"},
      {"measurement": "T-Biℓ", "setting": "ICR mice; female, 1000 µg/kg·day oral", "value": "→"},
      {"measurement": "T-CHO", "setting": "ICR mice; female, 1000 µg/kg·day oral", "value": "→"},
      {"measurement": "T-P", "setting": "ICR mice; female, 1000 µg/kg·day oral", "value": "→"},
      {"measurement": "A/G", "setting": "ICR mice; male, 10 µg/kg·day oral", "value": "→"},
      {"measurement": "ALP", "setting": "ICR mice; male, 10 µg/kg·day oral", "value": "→"},
      {"measurement": "Aℓb", "setting": "ICR mice; male, 10 µg/kg·day oral", "value": "→"},
      {"measurement": "BUN", "setting": "ICR mice; male, 10 µg/kg·day oral", "value": "→"},
      {"measurement": "Ca", "setting": "ICR mice; male, 10 µg/kg·day oral", "value": "→"},
      {"measurement": "GOT", "setting": "ICR mice; male, 10 µg/kg·day oral", "value": "→"},
      {"measurement": "GPT", "setting": "ICR mice; male, 10 µg/kg·day oral", "value": "→"},
      {"measurement": "Gℓu", "setting": "ICR mice; male, 10 µg/kg·day oral", "value": "→"},
      {"measurement": "I-P", "setting": "ICR mice; male, 10 µg/kg·day oral", "value": "→"},
      {"measurement": "LDH", "setting": "ICR mice; male, 10 µg/kg·day oral", "value": "→"},
      {"measurement": "T-Biℓ", "setting": "ICR mice; male, 10 µg/kg·day oral", "value": "→"},
      {"measurement": "T-CHO", "setting": "ICR mice; male, 10 µg/kg·day oral", "value": "→"},
      {"measurement": "T-P", "setting": "ICR mice; male, 10 µg/kg·day oral", "value": "→"},
      {"measurement": "A/G", "setting": "ICR mice; male, 100 µg/kg·day oral", "value": "→"},
      {"measurement": "ALP", "setting": "ICR mice; male, 100 µg/kg·day oral", "value": "→"},
      {"measurement": "Aℓb", "setting": "ICR mice; male, 100 µg/kg·day oral", "value": "→"},
      {"measurement": "BUN", "setting": "ICR mice; male, 100 µg/kg·day oral", "value": "→"},
      {"measurement": "Ca", "setting": "ICR mice; male, 100 µg/kg·day oral", "value": "→"},
      {"measurement": "GOT", "setting": "ICR mice; male, 100 µg/kg·day oral", "value": "→"},
      {"measurement": "GPT", "setting": "ICR mice; male, 100 µg/kg·day oral", "value": "→"},
      {"measurement": "Gℓu", "setting": "ICR mice; male, 100 µg/kg·day oral", "value": "→"},
      {"measurement": "I-P", "setting": "ICR mice; male, 100 µg/kg·day oral", "value": "→"},
      {"measurement": "LDH", "setting": "ICR mice; male, 100 µg/kg·day oral", "value": "→"},
      {"measurement": "T-Biℓ", "setting": "ICR mice; male, 100 µg/kg·day oral", "value": "→"},
      {"measurement": "T-CHO", "setting": "ICR mice; male, 100 µg/kg·day oral", "value": "→"},
      {"measurement": "T-P", "setting": "ICR mice; male, 100 µg/kg·day oral", "value": "→"},
      {"measurement": "A/G", "setting": "ICR mice; male, 1000 µg/kg·day oral", "value": "→"},
      {"measurement": "ALP", "setting": "ICR mice; male, 1000 µg/kg·day oral", "value": "→"},
      {"measurement": "Aℓb", "setting": "ICR mice; male, 1000 µg/kg·day oral", "value": "→"},
      {"measurement": "BUN", "setting": "ICR mice; male, 1000 µg/kg·day oral", "value": "↓"},
      {"measurement": "Ca", "setting": "ICR mice; male, 1000 µg/kg·day oral", "value": "→"},
      {"measurement": "GOT", "setting": "ICR mice; male, 1000 µg/kg·day oral", "value": "→"},
      {"measurement": "GPT", "setting": "ICR mice; male, 1000 µg/kg·day oral", "value": "→"},
      {"measurement": "Gℓu", "setting": "ICR mice; male, 1000 µg/kg·day oral", "value": "↓"},
      {"measurement": "I-P", "setting": "ICR mice; male, 1000 µg/kg·day oral", "value": "→"},
      {"measurement": "LDH", "setting": "ICR mice; male, 1000 µg/kg·day oral", "value": "↓"},
      {"measurement": "T-Biℓ", "setting": "ICR mice; male, 1000 µg/kg·day oral", "value": "↓"},
      {"measurement": "T-CHO", "setting": "ICR mice; male, 1000 µg/kg·day oral", "value": "→"},
      {"measurement": "T-P", "setting": "ICR mice; male, 1000 µg/kg·day oral", "value": "→"},
      {"measurement": "X-ray inspection", "setting": "[1]", "value": "the cure of the fracture was accelerated"}
    ]}
  ]
}
